Results as given in patent US7208479B2, “Peritoneal dialysis solution containing modified icodextrins” (Baxter International, Inc., priority 1998, dated 2007).

Key:
[1] = In vitro dialysis test predictive of dialytic efficiency: volume increase inside dialysis bag (Spectra Pore membrane, cut-off 500 Dalton); conditions: 37° C.
Procedure: In an in vitro test predictive of the dialytic efficiency of the osmotic agents described above, small dialysis bags with Spectra Pore membrane with a cut-off 500 Dalton (diameter 15 mm, 15 cm high) were filled with 3 ml of water solutions at different concentrations (2.5, 5.0% w/v of the samples). The bags were immersed in 200 ml of distilled water and 37° C. while stirring the extra dialysis solution. At given times (0, 1, 2, 3, 4, 5, 6 hours), the increase in the volume inside the dialysis bag was evaluated by weight and expressed as a percentage increase compared to the starting volume (Δw %).

[2] = Stability under sterilization conditions: absorbance (284 nm) variation after sterilization (121° C. 45 min); assay type: physicochemical
Procedure: The products were tested for stability under sterilization conditions at neutral pH. A significant reduction of absorbance variation at 284 nm (Δ Abs) after sterilization is observed for the reduced compounds. The reduced compounds from Example 1 are listed as HMW1 red, HMW2 red and LMW red in Table 1.
Utilizing the three different samples of maltodextrins discussed above with respect to Example 1, oxidation reactions were carried out on each sample by dissolving 15 grams of maltodextrin in 30 ml of water and combining the starch solution with an effective amount of NaOCl in 70 ml of a solution containing sodium hydroxide and having a pH of 8±0.5 at a temperature of 43° C. The combined solutions were allowed to stand for approximately 2 hours and the product solution was purified by gel permeation chromatography. Again, the products were analyzed using ^13C NMR spectroscopy and were tested for stability under sterilization conditions as illustrated in Table 1. While the oxidation products, HMW1 ox HMW2 ox and LMW ox show contrasting results, this is attributed to the high molecular weight oxidized products not being completely purified.
The stability of one product shown in Table 3 was tested for stability under sterilization conditions and the observed variation at 284 nm is compared with that of glucose and methyl glycoside.

[3] = 2.5% solution at pH 7 (footnote *), sterilization 121° C. 45 min
[4] = Table 4, 2.5% (w/v), sterilization 121° C. 45 min
[5] = 2.5% w/v, listed as α-methly-gluc.
[6] = 2.5% w/v, listed as β-methly-gluc.

Row | Compound | Δw % 1 h ([1]; 2.5% w/v) [%] | Δw % 2 h ([1]; 2.5% w/v) [%] | Δw % 3 h ([1]; 2.5% w/v) [%] | Δw % 4 h ([1]; 2.5% w/v) [%] | Δw % 5 h ([1]; 2.5% w/v) [%] | Δw % 6 h ([1]; 2.5% w/v) [%] | ΔAbs (pH 6.5–7.5) [2, 3] | ΔAbs neutra (pH 6.5–7.5) [2, 4] | Δw % 1 h ([1]; 5% w/v) [%] | Δw % 2 h ([1]; 5% w/v) [%] | Δw % 3 h ([1]; 5% w/v) [%] | Δw % 4 h ([1]; 5% w/v) [%] | Δw % 5 h ([1]; 5% w/v) [%] | Δw % 6 h ([1]; 5% w/v) [%] | other results
1 | O=C[C@H](O)[C@@H](O)[C@H](O)[C@H](O)CO [Glucose] | 15.3 | 34.2 | 43.4 | 57.3 | 74.2 | 90.9 | 0.98 | 0.07 |  |  |  |  |  |  | ΔAbs (pH 6.5–7.5) ([2]; 5% solution, after minus before sterilization 121° C. 45 min, pH 6.5–7.5): 2.54 ± 0.78; ΔAbs (pH 5.5) ([2]; 5% solution, sterilization 121° C. 45 min, pH 5.5): 2.36 ± 0.96; ΔAbs neutra (pH 6.5–7.5) ([2]; Table 4, 5% (w/v), sterilization 121° C. 45 min): 2.43 ± 0.9
2 | O=P(O)(O)O[C@H]1O[C@H](CO)[C@@H](O)[C@H](O)[C@H]1O [gluc.-1-phos., glucose-1-phosphate] | 35.8 | 53.6 | 76.3 | 95.9 | 120.1 | 144.1 |  |  |  |  |  |  |  |  | 
3 | COC1OC(CO)C(O)C(O)C1O (stereo not drawn) [α-methyl-gluc.] |  |  |  |  |  |  |  |  | 30.9 | 60.7 | 86.5 | 107.9 | 123.2 | 142.0 | Δw % 1 h [1, 5]: 21.8%; Δw % 2 h [1, 5]: 39.2%; Δw % 3 h [1, 5]: 55.4%; Δw % 4 h [1, 5]: 67.64%; Δw % 5 h [1, 5]: 79.5%; Δw % 6 h [1, 5]: 92.1%
4 | O=C1O[C@H](CO)[C@@H](O)[C@H](O)[C@H]1O [D(+)-Gluconolactone] |  |  |  |  |  |  | 0.01 |  |  |  |  |  |  |  | 
5 | COC1OC(CO)C(O)C(O)C1O (stereo not drawn) [β-methyl-gluc.] |  |  |  |  |  |  |  |  | 45 | 76.1 | 103.0 | 129.7 | 151.7 | 174.9 | Δw % 1 h [1, 6]: 34.0%; Δw % 2 h [1, 6]: 50.3%; Δw % 3 h [1, 6]: 63.7%; Δw % 4 h [1, 6]: 67.6%; Δw % 5 h [1, 6]: 77.7%; Δw % 6 h [1, 6]: 86.5%
6 | Methyl glycoside |  |  |  |  |  |  |  | 0.01 |  |  |  |  |  |  | 
